One experiment addresses αvβ3 integrin (Homo sapiens, UniProt P05106+P06756). Put plainly: IC50 binding activity, αvβ3 integrin. To be noted: read-out: IC50 ανβ3. An excerpt: (§1) As reported in the following Table 1, IC50 binding data was obtained for the integrin targeting ligands of Structures 1c, 2c, and 3c, as w ell as an RGD-mimetic peptide:
(§2) Moreover, while the RGD-mimetic ligand is shown to have binding activity, the integrin targeting ligands of the present disclosure have increased stability, both with respect to serum stability in vim and chemical stability ex vim, compared to such peptide-based RGD-mimetic ligands.

The next experiment addresses ανβ6 (Homo sapiens, UniProt P06756+P18564). Put plainly: IC50 binding activity, αvβ6 integrin. An excerpt:
As reported in the following Table 1, IC50 binding data was obtained for the integrin targeting ligands of Structures 1c, 2c, and 3c, as w ell as an RGD-mimetic peptide: […]

Another experiment deals with αvβ5 integrin (Homo sapiens, UniProt P06756+P18084). Put plainly: IC50 binding activity, αvβ5 integrin. To be noted: read-out: IC50 ανβ5.
αvβ5 integrin, sequence (P06756 31-1048): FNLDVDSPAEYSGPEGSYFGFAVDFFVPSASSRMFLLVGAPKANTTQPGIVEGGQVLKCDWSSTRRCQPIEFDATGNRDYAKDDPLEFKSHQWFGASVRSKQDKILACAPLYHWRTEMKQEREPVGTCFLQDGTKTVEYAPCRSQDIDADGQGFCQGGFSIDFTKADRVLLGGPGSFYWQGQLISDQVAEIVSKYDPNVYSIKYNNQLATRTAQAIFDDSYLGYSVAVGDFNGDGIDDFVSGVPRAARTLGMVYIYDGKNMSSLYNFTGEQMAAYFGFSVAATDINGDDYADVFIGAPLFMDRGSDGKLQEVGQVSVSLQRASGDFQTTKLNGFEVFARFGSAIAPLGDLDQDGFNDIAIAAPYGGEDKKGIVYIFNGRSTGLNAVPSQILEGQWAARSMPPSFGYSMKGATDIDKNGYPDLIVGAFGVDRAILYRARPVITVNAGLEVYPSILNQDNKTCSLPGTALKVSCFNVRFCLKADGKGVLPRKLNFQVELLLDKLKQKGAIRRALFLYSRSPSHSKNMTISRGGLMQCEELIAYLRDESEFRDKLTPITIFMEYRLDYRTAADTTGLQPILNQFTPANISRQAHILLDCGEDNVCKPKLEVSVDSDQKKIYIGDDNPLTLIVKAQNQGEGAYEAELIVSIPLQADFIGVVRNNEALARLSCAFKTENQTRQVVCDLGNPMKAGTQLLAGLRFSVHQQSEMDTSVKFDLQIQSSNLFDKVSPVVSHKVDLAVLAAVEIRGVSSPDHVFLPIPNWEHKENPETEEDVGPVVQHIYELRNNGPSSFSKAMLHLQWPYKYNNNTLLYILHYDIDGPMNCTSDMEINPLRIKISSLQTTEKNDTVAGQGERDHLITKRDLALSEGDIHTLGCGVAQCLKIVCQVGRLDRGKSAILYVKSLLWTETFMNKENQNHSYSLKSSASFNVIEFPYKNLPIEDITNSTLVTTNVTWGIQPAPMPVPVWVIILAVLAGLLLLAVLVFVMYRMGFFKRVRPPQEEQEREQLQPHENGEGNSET
αvβ5 integrin, sequence (P18084 24-799): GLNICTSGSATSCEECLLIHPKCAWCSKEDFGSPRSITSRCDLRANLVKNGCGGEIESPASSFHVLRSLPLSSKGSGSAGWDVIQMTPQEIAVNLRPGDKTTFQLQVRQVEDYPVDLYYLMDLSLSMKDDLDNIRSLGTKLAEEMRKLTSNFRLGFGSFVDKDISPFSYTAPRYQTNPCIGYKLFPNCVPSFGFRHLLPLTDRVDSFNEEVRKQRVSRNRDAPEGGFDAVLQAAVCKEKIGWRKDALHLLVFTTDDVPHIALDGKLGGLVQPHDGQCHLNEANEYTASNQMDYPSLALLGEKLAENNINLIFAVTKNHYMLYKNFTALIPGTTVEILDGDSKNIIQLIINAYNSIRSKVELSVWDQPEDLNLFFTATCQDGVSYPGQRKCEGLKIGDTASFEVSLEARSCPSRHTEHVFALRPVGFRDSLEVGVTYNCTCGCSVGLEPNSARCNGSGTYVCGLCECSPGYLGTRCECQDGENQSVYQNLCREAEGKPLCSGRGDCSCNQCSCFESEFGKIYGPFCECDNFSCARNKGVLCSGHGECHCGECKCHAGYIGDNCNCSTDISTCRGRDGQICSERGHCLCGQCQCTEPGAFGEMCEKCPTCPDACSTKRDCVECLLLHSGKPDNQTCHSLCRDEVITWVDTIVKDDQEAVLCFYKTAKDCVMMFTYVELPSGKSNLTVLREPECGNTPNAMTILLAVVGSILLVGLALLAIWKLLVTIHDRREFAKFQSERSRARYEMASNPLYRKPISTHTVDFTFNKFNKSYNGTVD
From the text: as §1, §2

For orientation: IC50 means the point on the concentration scale where inhibition reaches its midpoint.

ανβ6, sequence (P06756 31-1048): as the sequence (P06756 31-1048) above
ανβ6, sequence (P18564 22-788): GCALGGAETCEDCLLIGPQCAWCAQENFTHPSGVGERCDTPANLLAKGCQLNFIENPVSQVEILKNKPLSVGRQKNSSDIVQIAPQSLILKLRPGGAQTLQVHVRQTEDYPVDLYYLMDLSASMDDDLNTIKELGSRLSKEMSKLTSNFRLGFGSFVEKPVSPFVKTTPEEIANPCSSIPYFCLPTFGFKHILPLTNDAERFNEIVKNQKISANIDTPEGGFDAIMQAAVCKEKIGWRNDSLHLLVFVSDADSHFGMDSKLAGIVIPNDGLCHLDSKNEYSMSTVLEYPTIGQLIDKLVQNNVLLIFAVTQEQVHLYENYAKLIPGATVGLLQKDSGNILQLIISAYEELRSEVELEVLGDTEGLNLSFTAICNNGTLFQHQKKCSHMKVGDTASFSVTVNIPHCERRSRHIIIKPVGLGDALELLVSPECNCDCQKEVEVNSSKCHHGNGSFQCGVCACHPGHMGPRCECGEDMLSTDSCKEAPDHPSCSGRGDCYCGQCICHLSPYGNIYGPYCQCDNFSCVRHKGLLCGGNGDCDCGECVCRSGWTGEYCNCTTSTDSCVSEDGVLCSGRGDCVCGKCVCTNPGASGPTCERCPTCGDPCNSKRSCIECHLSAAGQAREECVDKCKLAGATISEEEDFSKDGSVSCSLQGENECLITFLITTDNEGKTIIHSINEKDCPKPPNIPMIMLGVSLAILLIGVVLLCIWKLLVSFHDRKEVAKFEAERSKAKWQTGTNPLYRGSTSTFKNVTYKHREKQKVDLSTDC
αvβ3 integrin, sequence (P06756 31-1048): as the sequence (P06756 31-1048) above
αvβ3 integrin, sequence (P05106 27-788): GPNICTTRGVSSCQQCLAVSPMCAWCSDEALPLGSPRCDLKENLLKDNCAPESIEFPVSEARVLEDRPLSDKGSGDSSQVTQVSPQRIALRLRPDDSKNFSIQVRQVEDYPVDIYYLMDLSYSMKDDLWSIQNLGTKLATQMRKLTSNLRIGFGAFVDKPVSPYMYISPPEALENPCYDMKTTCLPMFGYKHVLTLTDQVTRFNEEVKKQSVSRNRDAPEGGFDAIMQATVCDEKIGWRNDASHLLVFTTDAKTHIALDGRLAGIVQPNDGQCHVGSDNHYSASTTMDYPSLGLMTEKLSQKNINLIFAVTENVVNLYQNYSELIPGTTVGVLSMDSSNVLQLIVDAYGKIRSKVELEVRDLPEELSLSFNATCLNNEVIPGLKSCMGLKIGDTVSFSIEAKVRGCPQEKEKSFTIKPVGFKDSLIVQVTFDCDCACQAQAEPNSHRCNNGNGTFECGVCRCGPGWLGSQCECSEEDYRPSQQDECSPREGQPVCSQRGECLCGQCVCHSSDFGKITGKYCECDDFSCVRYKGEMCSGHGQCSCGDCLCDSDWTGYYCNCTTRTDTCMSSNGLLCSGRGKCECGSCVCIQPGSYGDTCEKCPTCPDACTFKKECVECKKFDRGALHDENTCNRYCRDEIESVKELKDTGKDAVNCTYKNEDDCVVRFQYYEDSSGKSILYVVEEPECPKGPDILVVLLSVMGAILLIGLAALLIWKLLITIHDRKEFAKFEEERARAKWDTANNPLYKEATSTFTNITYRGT

Consider `[N-]=[N+]=NCCOCCOCCOCCOCCC(=O)NCCCOc1ccc([C@H](CC(=O)O)N2CCN(CCCc3ccc4c(n3)NCCC4)C2=O)cn1` [Structure 1c, (S)-3-(6-((1-azido-15-oxo-3,6,9,12-tetraoxa-16-azanonadecan-19-yl)oxy)pyridin-3-yl)-3-(2-oxo-3-(3-(5,6,7,8-tetrahydro-1,8-naphthyridin-2-yl)propyl)imidazolidin-1-yl)propanoic acid], for which the half-maximal inhibitory concentration (IC50) is 0.3 nM at αvβ3 integrin, 5.3 nM at ανβ6 and 0.6 nM on αvβ5 integrin.
Turning to `[N-]=[N+]=NCCOCCOCCOCCOc1ccc([C@H](CC(=O)O)N2CCN(CCCc3ccc4c(n3)NCCC4)C2=O)cc1F` [Structure 2c, (S)-3-(4-(2-(2-(2-(2-azidoethoxy)ethoxy)ethoxy)ethoxy)-3-fluorophenyl)-3-(2-oxo-3-(3-(5,6,7,8-tetrahydro-1,8-naphthyridin-2-yl)propyl)imidazolidin-1-yl)propanoic acid], the values for the IC50 on αvβ3 integrin, on ανβ6 and on αvβ5 integrin were 0.3 nM, 8.9 nM and 5.6 nM, respectively.

(Values after patent publication US12667619B2, “Integrin targeting ligands and uses thereof” (Arrowhead Pharmaceuticals, Inc., priority 2018, dated 2026).)
